Test system: 293T, C2C12 or MC38 cells
Experiment: SamRNA-GFP transfection efficiency of LNPs by flow cytometry
Format: cell-based
Settings: LNP-SamRNA-GFP formulated with the lipid; FIGS. 4-6, 8-10
Protocol: The delivery system used to deliver the GFP-mRNA transfect are LNPs formulated using 12 individual ionizable lipids synthesized by three-component reactions. To generate the LNP encapsulated self-amplifying mRNA, the ionizable lipids of the present disclosure were dissolved in ethanol and directly added into an ethanol solution containing DOPE, cholesterol and DMG-PEG2000 at predetermined molar ratio. Self-amplifying mRNA encoding GFP sequences aqueous solution was mixed and the LNP mixture (100 ng mRNA) was added to a 96-well plate pre-seeded with MC38, C2C12 or 293T cells. The cells were incubated at 5% CO2 and 37° C. overnight. The GFP mRNA transfection efficiency was measured by flow cytometry.
E6, an ionizable lipid of the disclosure, was formulated into LNPs with 1,2-Dioleoyl-sn-glycero-3-phosphoethanolamine (DOPE), cholesterol (Chol), methoxypolyethylene glycol (DMG-PEG2000) with a mole ratio of 50/10/38.5/1.5 (ionizable lipid/DOPE/Chol/DMG-PEG2000) encapsulated self-amplifying mRNA or DNA encoding with reporter genes either green fluorescent protein (samRNA-GFP or DNA-CMV-EGFP) or firefly Luciferase (samRNA-LUC). Formulations containing 100 ng of self-amplifying mRNA were incubated to a well of 96-well plate with 60-70% confluent of HEK293, or C2C12, or MC38 cells (FIGS. 10, 23). The transfection efficiency was determined by flow cytometry for detection of GFP, or plate reader for detection of luciferase. LNP formulated using FDA approved ionizable lipid MC3 was used as a control (FIG. 10).
(§1) The LNPs containing SamRNA-GFP (or SamRNA-LUC, 100 ng/well) were added into 96-well plate which was pre-seeded with 293T, C2C12 or MC38 cells. After 24 hours incubation at 37° C. and 5% CO2, the luciferase SamRNA transfection efficiency was measured by plate reader (Perkin Elmer Envision 2104). The GFP SamRNA transfection efficiency was measured by flow cytometry (BD FACSymphony™ A5 SE Cell Analyzer).

Row | SMILES | delivery of mRNA-GFP compared with FDA approved ionizable lipid MC3
1 | CCCCCCCCCN(CCCCCCCCC)CCC(=O)N1CN(C(=O)CCN(CCCCCCCCC)CCCCCCCCC)CN(C(=O)CCN(CCCCCCCCC)CCCCCCCCC)C1 [E2, 1,1′,1″-(1,3,5-triazinane-1,3,5-triyl)tris(3-(dinonylamino)propan-1-one)] | more effectively deliver mRNA-GFP
2 | CCCCCCCCN(CCCCCCCC)C(c1ccc(C(c2ccccc2O)N(CCCCCCCC)CCCCCCCC)cc1)c1ccccc1O (stereo not drawn) [TP1A11, 2,2′-(1,4-phenylenebis((dioctylamino)methylene))diphenol] | more effectively deliver mRNA-GFP

Test system: 293T cells
Experiment: SamRNA-LUC transfection efficiency of LNPs by plate reader (luminescence)
Format: cell-based
Settings: LNP-SamRNA-Luc formulated with the lipid, incubated overnight, FIG. 11
Protocol: as §1

Row | SMILES | bioluminescence signals compared with MC3-LNP-SamRNA-Luc
3 | CCCCCCCCCCCCC(=O)N(C(CCCCCCC)CCCCCCC)C(C(=O)NCC(=O)OCC)C1CCN(CC)CC1 (stereo not drawn) [P1C1, Ethyl (2-(1-ethylpiperidin-4-yl)-2-(N-(pentadecan-8-yl)tridecanamido)acetyl)glycinate] | stronger bioluminescence signals than MC3-LNP-SamRNA-Luc
4 | CCCCCCCCCCCCCC(=O)N(CC(CCCCCCCC)CCCCCCCCCC)C(C(=O)NCC(=O)OCC)C1CCN(CC)CC1 (stereo not drawn) [P1D4, Ethyl (2-(1-ethylpiperidin-4-yl)-2-(N-(2-octyldodecyl)tetradecanamido)acetyl)glycinate] | stronger bioluminescence signals than MC3-LNP-SamRNA-Luc
5 | CCCCCCCCCCCCCCCC(=O)N(C(CCCCCCCC)CCCCCCCC)C(C(=O)NC1=CCCCC1)C1CCN(CC)CC1 (stereo not drawn) [P6A2, N-(2-(cyclohex-1-en-1-ylamino)-1-(1-ethylpiperidin-4-yl)-2-oxoethyl)-N-(heptadecan-9-yl)palmitamide] | stronger bioluminescence signals than MC3-LNP-SamRNA-Luc
6 | CCCCCCCCC(CCCCCCCC)N(C(=O)CCCCCCC)C(C(=O)NCCCC)C1CCN(CC)CC1 (stereo not drawn) [P14A2, N-(2-(butylamino)-1-(1-ethylpiperidin-4-yl)-2-oxoethyl)-N-(heptadecan-9-yl)octanamide] | stronger bioluminescence signals than MC3-LNP-SamRNA-Luc
7 | CCCCCCCCCCC(=O)N(C(CCCCCCC)CCCCCCC)C(C(=O)NCCCC)C1CCN(CC)CC1 (stereo not drawn) [P16B1, N-(2-(butylamino)-1-(1-ethylpiperidin-4-yl)-2-oxoethyl)-N-(pentadecan-8-yl)undecanamide] | stronger bioluminescence signals than MC3-LNP-SamRNA-Luc
8 | CCCCCCCCCCCCCC(=O)N(CC(CCCCCCCC)CCCCCCCCCC)C(C(=O)NC1CCCCC1)C1CCN(CC)CC1 (stereo not drawn) [P26D4, N-(2-(cyclohexylamino)-1-(1-ethylpiperidin-4-yl)-2-oxoethyl)-N-(2-octyldodecyl) tetradecanamide] | stronger bioluminescence signals than MC3-LNP-SamRNA-Luc
9 | CCCCCCCCCCCCCCCC(=O)N(C(CCCCCCC)CCCCCCC)C(C(=O)NC1CCCCC1)C1CCN(CC)CC1 (stereo not drawn) [P30A1, N-(2-(cyclohexylamino)-1-(1-ethylpiperidin-4-yl)-2-oxoethyl)-N-(pentadecan-8-yl)palmitamide] | stronger bioluminescence signals than MC3-LNP-SamRNA-Luc
10 | CCCCCCCCCCCCCCCCC(=O)N(C(CCCCCCC)CCCCCCC)C(CC1CCN(C)CC1)C(=O)NC1CCCCC1 (stereo not drawn) [P30B7, N-(1-(cyclohexylamino)-3-(1-methylpiperidin-4-yl)-1-oxopropan-2-yl)-N-(pentadecan-8-yl)heptadecanamide] | stronger bioluminescence signals than MC3-LNP-SamRNA-Luc
11 | CCCCCCCCCCCCCCCCCC(=O)N(C(CCCCCCC)CCCCCCC)C(CC1CCN(C)CC1)C(=O)NC1CCCCC1 (stereo not drawn) [P30C7, N-(1-(cyclohexylamino)-3-(1-methylpiperidin-4-yl)-1-oxopropan-2-yl)-N-(pentadecan-8-yl)stearamide] | stronger bioluminescence signals than MC3-LNP-SamRNA-Luc
12 | CCCCCCCCCCCCCC(=O)N(C(CCCCCCC)CCCCCCC)C(C(=O)NC1CCCCCC1)C1CCN(CC)CC1 (stereo not drawn) [P38D1, N-(2-(cycloheptylamino)-1-(1-ethylpiperidin-4-yl)-2-oxoethyl)-N-(pentadecan-8-yl)tetradecanamide] | stronger bioluminescence signals than MC3-LNP-SamRNA-Luc
13 | CCCCCCCCCCCCCC(=O)N(C(CCCCCCC)CCCCCCC)C(CC1CCN(C)CC1)C(=O)NC1CCCCCC1 (stereo not drawn) [P38D7, N-(1-(cycloheptylamino)-3-(1-methylpiperidin-4-yl)-1-oxopropan-2-yl)-N-(pentadecan-8-yl)tetradecanamide] | stronger bioluminescence signals than MC3-LNP-SamRNA-Luc
14 | CCCCCCCCCCCCCC(=O)N(C(CCCCCCCC)CCCCCCCC)C(CC1CCN(C)CC1)C(=O)NC1CCCCCC1 (stereo not drawn) [P38D8, N-(1-(cycloheptylamino)-3-(1-methylpiperidin-4-yl)-1-oxopropan-2-yl)-N-(heptadecan-9-yl)tetradecanamide] | stronger bioluminescence signals than MC3-LNP-SamRNA-Luc
15 | CCCCCCCCCCC(=O)N(CC(CCCCCCCC)CCCCCCCCCC)C(CC1CCN(C)CC1)C(=O)NC1CCCCCC1 (stereo not drawn) [P40B10, N-(1-(cycloheptylamino)-3-(1-methylpiperidin-4-yl)-1-oxopropan-2-yl)-N-(2-octyldodecyl)undecanamide] | stronger bioluminescence signals than MC3-LNP-SamRNA-Luc
16 | CCCCCCCCCCCC(=O)N(CC(CCCCCCCC)CCCCCCCCCC)C(CC1CCN(C)CC1)C(=O)NC1CCCCCC1 (stereo not drawn) [P40C10, N-(1-(cycloheptylamino)-3-(1-methylpiperidin-4-yl)-1-oxopropan-2-yl)-N-(2-octyldodecyl)dodecanamide] | stronger bioluminescence signals than MC3-LNP-SamRNA-Luc
17 | CCCCCCCCCCCC(=O)N(C(CCCCCCCCCCC)CCCCCCCCCCC)C(CC1CCN(C)CC1)C(=O)NC1CCCCCC1 (stereo not drawn) [P40C11, N-(1-(cycloheptylamino)-3-(1-methylpiperidin-4-yl)-1-oxopropan-2-yl)-N-(tricosan-12-yl)dodecanamide] | stronger bioluminescence signals than MC3-LNP-SamRNA-Luc
18 | CCCCCCCCCCCCCCC(=O)N(C(CCCCCCC)CCCCCCC)C(CC1CCN(C)CC1)C(=O)NC1CCCCCC1 (stereo not drawn) [P40D7, N-(1-(cycloheptylamino)-3-(1-methylpiperidin-4-yl)-1-oxopropan-2-yl)-N-(pentadecan-8-yl)pentadecanamide] | stronger bioluminescence signals than MC3-LNP-SamRNA-Luc
19 | CCCCCCCCCCCCC(=O)N(CC(CCCCCCCCCC)CCCCCCCCCCCC)C(CC1CCN(C)CC1)C(=O)NC(C)(C)C (stereo not drawn) [P51C12, N-(1-(tert-butylamino)-3-(1-methylpiperidin-4-yl)-1-oxopropan-2-yl)-N-(2-decyltetradecyl)tridecanamide] | stronger bioluminescence signals than MC3-LNP-SamRNA-Luc
20 | CCCCCCCCCCCC(CCCCCCCCCCC)N(C(=O)CCCCCCCCC)C(C(=O)NC(C)(C)C)C1CCN(CC)CC1 (stereo not drawn) [P53A5, N-(2-(tert-butylamino)-1-(1-ethylpiperidin-4-yl)-2-oxoethyl)-N-(tricosan-12-yl)decanamide] | stronger bioluminescence signals than MC3-LNP-SamRNA-Luc
21 | CCCCCCCCCCCCC(CCCCCCCCCC)CN(C(=O)CCCCCCCCC)C(C(=O)NC(C)(C)C)C1CCN(CC)CC1 (stereo not drawn) [P53A6, N-(2-(tert-butylamino)-1-(1-ethylpiperidin-4-yl)-2-oxoethyl)-N-(2-decyltetradecyl)decanamide] | stronger bioluminescence signals than MC3-LNP-SamRNA-Luc
22 | CCCCCCCCCCCCC(CCCCCCCCCC)CN(C(=O)CCCCCCCCCC)C(C(=O)NC12CC3CC(CC(C3)C1)C2)C1CCN(CC)CC1 (stereo not drawn) [P54B6, N-(2-(((1s,3s)-adamantan-1-yl)amino)-1-(1-ethylpiperidin-4-yl)-2-oxoethyl)-N-(2-decyltetradecyl)undecanamide] | stronger bioluminescence signals than MC3-LNP-SamRNA-Luc
23 | CCCCCCCCCCCCCCCC(=O)N(C(CCCCCCC)CCCCCCC)C(C(=O)NC12CC3CC(CC(C3)C1)C2)C1CCN(CC)CC1 (stereo not drawn) [P56A1, N-(2-(((1s,3s)-adamantan-1-yl)amino)-1-(1-ethylpiperidin-4-yl)-2-oxoethyl)-N-(pentadecan-8-yl)palmitamide] | stronger bioluminescence signals than MC3-LNP-SamRNA-Luc
24 | CCCCCCCCCCCCCCCCC(=O)N(C(CCCCCCC)CCCCCCC)C(C(=O)NC12CC3CC(CC(C3)C1)C2)C1CCN(CC)CC1 (stereo not drawn) [P56B1, N-(2-(((1s,3s)-adamantan-1-yl)amino)-1-(1-ethylpiperidin-4-yl)-2-oxoethyl)-N-(pentadecan-8-yl)heptadecanamide] | stronger bioluminescence signals than MC3-LNP-SamRNA-Luc
